Assay results from ChEMBL document CHEMBL5532740, “Optimization of a Novel DEL Hit That Binds in the Cbl-b SH2 Domain and Blocks Substrate Binding” (ACS Med Chem Lett, 2024).

Tests used:
[1] = target: T1, E3 ubiquitin-protein ligase CBL-B (Homo sapiens, UniProt Q13191); experiment: Inhibition of active phospho Cbl-b (unknown origin) using His-phospho ZAP70 as substrate incubated for 30 mins followed by substrate addition and measured after 30 mins by TR-FRET assay
[2] = target: T1, E3 ubiquitin-protein ligase CBL-B; experiment: Binding affinity to N-terminal Avi-tagged biotinylated human Cbl-b (40 to 426 residues) expressed in Escherichia coli by SPR assay

T1 sequence (Q13191 whole entry, the tested form may be a part): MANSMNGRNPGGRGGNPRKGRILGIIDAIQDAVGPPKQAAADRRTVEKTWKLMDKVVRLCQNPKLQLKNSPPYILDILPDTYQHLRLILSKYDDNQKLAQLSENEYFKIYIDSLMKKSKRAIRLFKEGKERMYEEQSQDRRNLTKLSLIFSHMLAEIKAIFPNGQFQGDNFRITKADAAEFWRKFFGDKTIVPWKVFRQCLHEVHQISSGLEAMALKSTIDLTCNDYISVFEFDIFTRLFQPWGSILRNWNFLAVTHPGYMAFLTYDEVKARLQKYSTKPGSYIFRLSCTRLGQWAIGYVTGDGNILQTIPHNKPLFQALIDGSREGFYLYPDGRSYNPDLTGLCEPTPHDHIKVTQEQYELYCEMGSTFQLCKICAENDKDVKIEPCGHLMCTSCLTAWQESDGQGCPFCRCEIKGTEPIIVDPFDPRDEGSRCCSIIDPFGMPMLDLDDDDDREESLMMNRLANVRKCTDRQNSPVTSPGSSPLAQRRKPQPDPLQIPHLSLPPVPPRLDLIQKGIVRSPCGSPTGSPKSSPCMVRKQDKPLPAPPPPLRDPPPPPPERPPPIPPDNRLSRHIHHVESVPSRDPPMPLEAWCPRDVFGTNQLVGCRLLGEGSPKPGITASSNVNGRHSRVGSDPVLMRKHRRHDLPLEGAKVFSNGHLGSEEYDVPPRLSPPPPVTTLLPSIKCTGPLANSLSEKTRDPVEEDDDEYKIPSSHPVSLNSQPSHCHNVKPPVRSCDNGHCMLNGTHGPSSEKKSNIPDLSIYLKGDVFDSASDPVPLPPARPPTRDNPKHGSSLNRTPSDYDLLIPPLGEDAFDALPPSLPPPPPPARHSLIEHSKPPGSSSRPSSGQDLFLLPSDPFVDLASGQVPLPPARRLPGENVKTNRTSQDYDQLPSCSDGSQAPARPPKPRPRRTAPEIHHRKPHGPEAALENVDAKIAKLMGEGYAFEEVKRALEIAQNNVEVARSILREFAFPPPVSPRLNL

CCN1C(=O)[C@H](C)N(C(=O)Cc2c(OC)ccc3c2Oc2c(ccc(OC)c2CC(=O)O)C3(C)C)[C@@H]1c1cc([N+](=O)[O-])cc(OC)c1OCC(=O)O
IC50 [1]: 300 nM

CCOc1c(OC)cc([N+](=O)[O-])cc1[C@@H]1N(C)C(=O)[C@H](C)N1C(=O)Cc1c(OC)ccc2c1Oc1c(ccc(OC)c1C(=O)NS(C)(=O)=O)C2(C)C
IC50 [1]: > 20000 nM

COc1ccc2c(c1CC(=O)O)Oc1c(ccc(OC)c1CC(=O)N1[C@H](c3cc([N+](=O)[O-])cc(OC)c3OCC(=O)O)N(C)C(=O)[C@@H]1C)C2(C)C
IC50 [1]: 340 nM | Kd [2]: 280 nM

COc1ccc2c(c1CC(=O)O)Oc1c(ccc(OC)c1CC(=O)N1[C@@H](C)C(=O)N(C)[C@@H]1c1cc([N+](=O)[O-])cc(OC)c1OCC(=O)O)C2(C)C
IC50 [1]: > 20000 nM | Kd [2]: 44000 nM

CCOC(=O)COc1c(OC)cc([N+](=O)[O-])cc1[C@@H]1N(C)C(=O)[C@H](C)N1C(=O)Cc1c(OC)ccc2c1Oc1c(ccc(OC)c1CC(=O)O)C2(C)C
IC50 [1]: 890 nM

CC[C@H]1C(=O)N(C)[C@@H](c2cc([N+](=O)[O-])cc(OC)c2OCC(=O)O)N1C(=O)Cc1c(OC)ccc2c1Oc1c(ccc(OC)c1CC(=O)O)C2(C)C
IC50 [1]: 770 nM
